Experimental data published in patent publication US8598232B2, “Process for the preparation of non-genotoxic diacetylrhein (diacerein) and formulations comprising non-genotoxic diacetylrhein” (Evultis SA, priority 2008, dated 2013).
Counter-ions that a name gives are not always drawn.

Experiment: solubility in water of the potassium salt of Diacerein
Format: physicochemical
Details: in water at neutral pH (pH=7)
Method: Type A Process: The first step of the process (a.) is to salify the raw Diacerein to obtain a salt of Diacerein which is soluble in water. The water soluble salt of Diacerein is preferably an inorganic salt of Diacerein, more preferably a salt of Diacerein with an alkali metal. In a preferred embodiment, the salt of Diacerein is a potassium salt of Diacerein or a sodium salt of Diacerein. The solubility of potassium salt of Diacerein is around 1 g/50 ml of water at neutral pH (pH=7).

SMILES: CC(=O)Oc1cccc2c1C(=O)c1c(OC(C)=O)cc(C(=O)O)cc1C2=O [potassium salt of Diacerein, 1,8-diacetoxy-3-carboxyanthraquinone]
- solubility: around 1 g/50 ml
